According to patent US11479550B2, “EP4 antagonist” (ONO PHARMACEUTICAL CO., LTD., priority 2017, dated 2022):
pIC50: −log10 of the molar value.

molecular target: human EP4 receptor (Homo sapiens (Human), UniProt P35408); experiment: EP4 antagonistic activity measurement experiment using prostanoid receptor subtype expressing cells; assay type: cell-based; settings: CHO cells expressing human EP4 receptor; inhibition of cAMP production by PGE2 10 nM; 30 minutes at room temperature
Experimental: CHO cells expressing human EP4 receptor subtypes were prepared according to the methods of Nishigaki et al. (Non-Patent Literature 4), and used for experiment. Cells cultured to subconfluent were detached, and suspended in an assay medium (MEM containing 1 mmol/L IBMX, 1% HSA) such that a concentration became 1×10^6 cells/mL. For reaction, PGE2 was added to the cell suspension (25 μL) in a final concentration of 10 nmol/L, either alone or as a 25-μL PGE2 solution containing the test compound. After 30 minutes of reaction at room temperature, the amount of cAMP in the cells was quantified according to the method in the descriptions of the cAMP assay kit (CISBIO).
Note here that the antagonistic effect (IC50 value) of the test compound was calculated as a value that represents an inhibition rate against a reaction with PGE2 alone at 10 nM, a concentration that produces a submaximal cAMP producing effect.

Chain of human EP4 receptor (P35408 whole entry): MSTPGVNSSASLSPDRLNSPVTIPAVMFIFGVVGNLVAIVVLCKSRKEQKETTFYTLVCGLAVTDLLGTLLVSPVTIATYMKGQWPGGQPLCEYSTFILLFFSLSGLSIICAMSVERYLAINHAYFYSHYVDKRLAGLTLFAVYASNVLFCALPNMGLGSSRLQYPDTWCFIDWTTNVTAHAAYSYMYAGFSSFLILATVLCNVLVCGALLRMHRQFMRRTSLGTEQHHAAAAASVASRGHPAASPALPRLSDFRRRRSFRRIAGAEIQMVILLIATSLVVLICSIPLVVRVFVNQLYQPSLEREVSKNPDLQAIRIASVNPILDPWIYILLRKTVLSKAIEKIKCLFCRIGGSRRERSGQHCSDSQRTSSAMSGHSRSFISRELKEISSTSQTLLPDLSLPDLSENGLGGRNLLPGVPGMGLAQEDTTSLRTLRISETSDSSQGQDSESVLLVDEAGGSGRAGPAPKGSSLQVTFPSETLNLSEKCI

Row | pIC50 | SMILES
1 | 8.80 | CNC(=O)c1ccc2c(C)cn(C(C)C(=O)Nc3cc(Cn4cc(C)cn4)ccc3CCCC(=O)O)c2c1 (single isomer, unassigned) [Example 12-1(2), 4-{2-({2-[3-methyl-6-(methylcarbamoyl)-1H-indol-1-yl]propanoyl}amino)-4-[(4-methyl-1H-pyrazol-1-yl)methyl]phenyl}butanoic acid]
2 | 8.77 | Cc1cnn(Cc2ccc(CCCC(=O)O)c(NC(=O)C(C)n3cc(C)c4ccc(C(=O)NC(C)C)cc43)c2)c1 (single isomer, unassigned) [Example 3-7(2), 4-{2-({2-[6-(isopropylcarbamoyl)-3-methyl-1H-indol-1-yl]propanoyl}amino)-4-[(4-methyl-1H-pyrazol-1-yl)methyl]phenyl}butanoic acid]
3 | 9.05 | CCNC(=O)c1ccc2c(C)cn(C(C)C(=O)Nc3cc(Cn4cc(C)cn4)ccc3CCCC(=O)O)c2c1 (single isomer, unassigned) [Example 3-3(2), 4-{2-({2-[6-(ethylcarbamoyl)-3-methyl-1H-indol-1-yl]propanoyl}amino)-4-[(4-methyl-1H-pyrazol-1-yl)methyl]phenyl}butanoic acid]
4 | 8.40 | Cc1cn(C(C)C(=O)Nc2cc(C#N)ccc2CCCC(=O)O)c2cc(C(=O)NCc3ccccc3)ccc12 (stereo not shown) [Example 11-8, 4-[2-({2-[6-(benzylcarbamoyl)-3-methyl-1H-indol-1-yl]propanoyl}amino)-4-cyanophenyl]butanoic acid]
5 | 8.34 | CNC(=O)c1ccc2c(C3CC3)cn(C(C)C(=O)Nc3cc(Cn4cc(C)cn4)ccc3CCCC(=O)O)c2c1 (single isomer, unassigned) [Example 9-1(2), 4-{2-({2-[3-cyclopropyl-6-(methylcarbamoyl)-1H-indol-1-yl]propanoyl}amino)-4-[(4-methyl-1H-pyrazol-1-yl)methyl]phenyl}butanoic acid]
6 | 8.57 | CNC(=O)c1ccc2c(C)cn(C(C)C(=O)Nc3cc(Cn4cc(F)cn4)ccc3CCCC(=O)O)c2c1 (single isomer, unassigned) [Example 4-8(2), 4-{4-[(4-fluoro-1H-pyrazol-1-yl)methyl]-2-({2-[3-methyl-6-(methylcarbamoyl)-1H-indol-1-yl]propanoyl}amino)phenyl}butanoic acid]
7 | 8.34 | Cc1cnn(Cc2ccc(CCCC(=O)O)c(NC(=O)C(C)n3cc(C)c4ccc(C(=O)N(C)C)cc43)c2)c1 (single isomer, unassigned) [Example 3-11(2), 4-{2-({2-[6-(dimethylcarbamoyl)-3-methyl-1H-indol-1-yl]propanoyl}amino)-4-[(4-methyl-1H-pyrazol-1-yl)methyl]phenyl}butanoic acid]
